Converted amounts (≈) assume the structure as drawn.
Assays:
S. aureus ATCC 13709 = assay: MIC, S. aureus ATCC 13709; assay type: cell-based; conditions: Alamar Blue read after overnight incubation at 35° C.; for MIC: Staphylococcus aureus, ATCC13709, S. aureus, read-out: MIC Sa; for MIC Sa: S. aureus
E. coli ATCC 25922 = assay: MIC, E. coli ATCC 25922; assay type: cell-based; conditions: Alamar Blue read after overnight incubation at 35° C.; for MIC: Escherichia coli, ATCC25922, E. coli, read-out: MIC Ec; for MIC Ec: E. coli

SMILES	MIC (S. aureus ATCC 13709) [µg/mL]	MIC (E. coli ATCC 25922) [µg/mL]	MIC Sa (S. aureus ATCC 13709) [µg/mL]	MIC Ec (E. coli ATCC 25922) [µg/mL]
CNc1cccc2c1[nH]c1nc(Oc3cncnc3)cc(N3CC(N)C4(CC4)C3)c12 (stereo not shown) [Compound 3.45]	≤ 0.5	≤ 0.5	–	–
CNc1cccc2c1[nH]c1nc(Oc3cncnc3)cc(N3C[C@@H](NC)C4(CC4)C3)c12 [Compound 3.46]	2 (≈ 4.81 µM)	4 (≈ 9.63 µM)	–	–
CNc1cccc2c1[nH]c1nc(Oc3cncnc3)cc(N3C[C@H](NC)C4(CC4)C3)c12 [Compound 3.47]	≤ 0.5	≤ 0.5	–	–
CNc1cccc2c1[nH]c1nc(Oc3cnc(C)nc3)cc(N3C[C@@H](NC)C4(CC4)C3)c12 [Compound 3.48]	2 (≈ 4.66 µM)	8 (≈ 18.6 µM)	–	–
CNc1cccc2c1[nH]c1nc(Oc3cnc(C)nc3)cc(N3C[C@H](NC)C4(CC4)C3)c12 [Compound 3.49]	≤ 0.5	≤ 0.5	–	–
CNc1cccc2c1[nH]c1nc(Oc3cncc(F)c3)cc(N3CC(N)C4(CC4)C3)c12 (stereo not shown) [Compound 3.50]	≤ 0.5	2 (≈ 4.78 µM)	–	–
CNc1cccc2c1[nH]c1nc(Oc3cncc(F)c3)cc(N3C[C@@H](NC)C4(CC4)C3)c12 [Compound 3.51]	8 (≈ 18.5 µM)	32 (≈ 74 µM)	–	–
CNc1cccc2c1[nH]c1nc(Oc3cnc4cccnc4c3)cc(N3CC(N)C4(CC4)C3)c12 (stereo not shown) [Compound 3.52]	≤ 0.5	≤ 0.5	–	–
CNc1cccc2c1[nH]c1nc(Oc3cncnc3)cc(N3CCN(Cc4ccccn4)CC3)c12 [Compound 3.54]	8 (≈ 17.1 µM)	> 32	–	–
CNc1cccc2c1[nH]c1nc(Oc3cncc(C#N)c3)cc(N3CCN(CCN)CC3)c12 [Compound 3.55]	64 (≈ 145 µM)	> 64	–	–
CNc1cccc2c1[nH]c1nc(Oc3cncnc3)cc(N3CCN(CCN)CC3)c12 [Compound 3.56]	> 64	> 64	–	–
CNc1cccc2c1[nH]c1nc(Oc3cncc(C#N)c3)cc(N3CCN(CCN4CCOCC4)CC3)c12 [Compound 3.59]	4 (≈ 7.8 µM)	> 64	–	–
CNc1cccc2c1[nH]c1nc(Oc3cncnc3)cc(N3CCN(CCN4CCOCC4)CC3)c12 [Compound 3.60]	8 (≈ 16.4 µM)	> 64	–	–
CNc1cccc2c1[nH]c1nc(Oc3cncnc3)cc(N3C[C@@H]4CNC[C@H]4C3)c12 [Compound 3.61]	4 (≈ 9.96 µM)	16 (≈ 39.9 µM)	–	–
CNc1cccc2c1[nH]c1nc(Oc3cncnc3)cc(N3C/C(=N\OC)[C@@H](N)C3)c12 [Compound 3.62]	≤ 0.5	8 (≈ 19.1 µM)	–	–
CNc1cccc2c1[nH]c1nc(Oc3cncnc3)cc(N3CC(F)[C@@H](N)C3)c12 (stereo partly shown) [Compound 3.63]	≤ 0.5	8 (≈ 20.3 µM)	–	–
CNc1cccc2c1[nH]c1nc(Oc3cncnc3)cc(N3CCC(N)CC3)c12 [Compound 3.64]	16 (≈ 41.1 µM)	64 (≈ 164 µM)	–	–
CNc1cccc2c1[nH]c1nc(Oc3cncnc3)cc(N3CCC4(CNC4)C3)c12 [Compound 3.65]	8 (≈ 19.9 µM)	64 (≈ 159 µM)	–	–
CNc1cccc2c1[nH]c1nc(Oc3cncc(F)c3)cc(N3CCC4(CNC4)C3)c12 [Compound 3.66]	8 (≈ 19.1 µM)	> 32	–	–
CNc1cccc2c1[nH]c1nc(Oc3cncnc3)cc(N3CC4(CCNC4)C3)c12 [Compound 3.67]	16 (≈ 39.9 µM)	64 (≈ 159 µM)	–	–
CNc1cc(F)cc2c1[nH]c1nc(Oc3cnc4cccnc4c3)nc(N3CC4C(N)C4C3)c12 (stereo not shown) [Compound 4.037]	–	–	≤0.5	≤0.5

Now from value to compound:

MIC (S. aureus ATCC 13709) [µg/mL]	MIC (E. coli ATCC 25922) [µg/mL]	MIC Sa (S. aureus ATCC 13709) [µg/mL]	MIC Ec (E. coli ATCC 25922) [µg/mL]	SMILES
–	–	≤0.5	≤0.5	CNc1cc(F)cc2c1[nH]c1nc(Oc3cncnc3)nc(N3CC4C(N)C4C3)c12 (stereo not shown) [Compound 4.001]
–	–	≤0.5	≤0.5	CNc1cc(F)cc2c1[nH]c1nc(Oc3cncnc3)nc(N3CC(N)C4(CC4)C3)c12 (stereo not shown) [Compound 4.002]
–	–	≤0.5	≤0.5	CNc1cc(F)cc2c1[nH]c1nc(Oc3cncnc3)nc(N3CCC4(CC4N)C3)c12 (stereo not shown) [Compound 4.003]
–	–	≤0.5	2 (≈ 4.76 µM)	CNc1cc(F)cc2c1[nH]c1nc(Oc3cncnc3)nc(N3CC4C(CN)C4C3)c12 (stereo not shown) [Compound 4.004]
–	–	≤0.5	≤0.5	CNc1cc(F)cc2c1[nH]c1nc(Oc3cncnc3)nc(N3CC4CC4(N)C3)c12 (stereo not shown) [Compound 4.005]
–	–	≤0.5	≤0.5	CNc1cc(F)cc2c1[nH]c1nc(Oc3cncnc3)nc(N3CC4C(N)C4C3)c12 (stereo not shown) [Compound 4.010]
–	–	≤0.5	1 (≈ 2.3 µM)	CNc1cc(F)cc2c1[nH]c1nc(Oc3cncnc3)nc(N3CC4CCC(N)C4C3)c12 (stereo not shown) [Compound 4.016]
–	–	≤0.5	≤0.5	CNc1cc(F)cc2c1[nH]c1nc(Oc3cncnc3)nc(N3CCC(C4(N)CC4)C3)c12 (stereo not shown) [Compound 4.017]
–	–	≤0.5	≤0.5	CNc1cc(F)cc2c1[nH]c1nc(Oc3cncnc3)nc(N3CC4CCNC4C3)c12 (stereo not shown) [Compound 4.020]
–	–	≤0.5	1 (≈ 2.37 µM)	CNc1cc(F)cc2c1[nH]c1nc(Oc3cncnc3)nc(N3CC(C)C(CN)C3)c12 (stereo not shown) [Compound 4.023]
–	–	≤0.5	2 (≈ 4.73 µM)	CNc1cc(F)cc2c1[nH]c1nc(Oc3cncnc3)nc(N3CCCC(C)(N)C3)c12 (stereo not shown) [Compound 4.024]
–	–	≤0.5	2 (≈ 4.6 µM)	CNc1cc(F)cc2c1[nH]c1nc(Oc3cncnc3)nc(N3C4CCC3CC(N)C4)c12 (stereo not shown) [Compound 4.025]
–	–	≤0.5	≤0.5	CNc1cc(F)cc2c1[nH]c1nc(Oc3cncnc3)nc(N3CC4CCC(N)C4C3)c12 (stereo not shown) [Compound 4.026]
–	–	≤0.5	1 (≈ 2.3 µM)	CNc1cc(F)cc2c1[nH]c1nc(Oc3cncnc3)nc(N3CCC(C4(N)CC4)C3)c12 (stereo not shown) [Compound 4.027]
–	–	≤0.5	≤0.5	CNc1cc(F)cc2c1[nH]c1nc(Oc3cncnc3)nc(N3CC4C[C@@H](N)C4C3)c12 (stereo partly shown) [Compound 4.028]
–	–	4 (≈ 9.79 µM)	16 (≈ 39.2 µM)	CNc1cc(F)cc2c1[nH]c1nc(Oc3cncnc3)nc(N3CC(N)CC3C)c12 (stereo not shown) [Compound 4.029]
–	–	2 (≈ 6.45 µM)	>16	CNc1cc(F)cc2c1[nH]c1nc(Oc3cncnc3)ncc12 [Compound 4.031]
–	–	≤0.5	4 (≈ 9.21 µM)	CNc1cc(F)cc2c1[nH]c1nc(Oc3cncnc3)nc(N3CCC4(CCNC4)C3)c12 (stereo not shown) [Compound 4.033]
–	–	≤0.5	≤0.5	CNc1cc(F)cc2c1[nH]c1nc(Oc3cnc4cccnc4c3)nc(N3CC4CC4(N)C3)c12 (stereo not shown) [Compound 4.036]
–	–	≤0.5	≤0.5	CNc1cc(F)cc2c1[nH]c1nc(Oc3cnc4cccnc4c3)nc(N3CC4(CC4N)C3)c12 (stereo not shown) [Compound 4.042]
–	–	≤0.5	≤0.5	CNc1cc(F)cc2c1[nH]c1nc(Oc3cnc4cccnc4c3)nc(N3CC4CCNC4C3)c12 (stereo not shown) [Compound 4.044]
–	–	≤0.5	1 (≈ 2.06 µM)	CNc1cc(F)cc2c1[nH]c1nc(Oc3cnc4cccnc4c3)nc(N3CC4CC(N)CC4C3)c12 (stereo not shown) [Compound 4.046]
–	–	≤0.5	1 (≈ 2.06 µM)	CNc1cc(F)cc2c1[nH]c1nc(Oc3cnc4cccnc4c3)nc(N3CC4NCCOC4C3)c12 (stereo not shown) [Compound 4.048]

Reference: US10865216B2, “Tricyclic Gyrase inhibitors” (MERCK SHARP & DOHME CORP., priority 2012, dated 2020)
